In patent publication US20200288710A1, “SUBSTITUTED SULPHONAMIDES FOR CONTROLLING ANIMAL PESTS” (BAYER CROPSCIENCE AKTIENGESELLSCHAFT, priority 2016, published 2020):

Experiments:
Format in all cases: in vivo
[1] = test system: Meloidogyne incognita; experiment: Meloidogyne incognita test; conditions: 336 h, lettuce, after 14 days, read-out: nematicidal efficacy (formation of galls)
How it was run: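 Active compound in acetone, diluted with water, added to sand-filled vessels with M. incognita eggs/larvae and lettuce seeds. After 14 days, efficacy scored by root gall formation: 100% = no galls, 0% = galls equal to untreated control.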

[2] = test system: Phaedon cochleariae; experiment: Phaedon cochleariae spray test; conditions: foliar, 168 h, Chinese cabbage leaf discs, larvae, after 7 days, read-out: efficacy
Protocol: Phaedon cochleariae—Spray Test
To produce a suitable preparation of active compound, 1 part by weight of active compound is dissolved using the specified parts by weight of solvent and made up with water containing an emulsifier concentration of 1000 ppm until the desired concentration is attained. To produce further test concentrations, the formulation is diluted with emulsifier-containing water.
After 7 days, the efficacy in % is determined. 100% means that all the beetle larvae have been killed; 0% means that no beetle larvae have been killed.

[3] = test system: Myzus persicae; experiment: Myzus persicae spray test (Chinese cabbage leaf discs); conditions: foliar, 120 h, after 5-6 days, read-out: efficacy
How it was run: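 Chinese cabbage leaf discs infested with all stages of green peach aphid were sprayed with compound formulated in acetone/DMF and emulsifier-containing water. Efficacy in % was scored after 5-6 days, with 100% meaning all aphids killed and 0% none killed.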

[4] = test system: Myzus persicae; experiment: Myzus persicae oral test; conditions: 120 h, 20 ppm, oral uptake, after 5 days, read-out: efficacy
How it was run: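 Compound dissolved in acetone, diluted in water, then mixed 50:150 μl with IPL41 insect medium (33%+15% sugar). Mixed-population green peach aphids feed through a parafilm seal on the solution; mortality scored as % efficacy after 5 days (100% = all killed).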

| Compound | pest or weed control at 20 ppm [1] | pest or weed control at 500 g/ha [2] | pest or weed control at 500 g/ha [3] | pest or weed control at 20 ppm [4] | pest or weed control at 100 g/ha ([3]; 100 g/ha) |
| --- | --- | --- | --- | --- | --- |
| Cn1cc(C(=O)NS(=O)(=O)c2ccccc2Cl)nc1-c1cccc2ccccc12 [Example 479] | 90% | 100% | – | – | – |
| CCc1ccccc1S(=O)(=O)NC(=O)c1cn(C)c(-c2nccc3ccccc23)n1 [Example 469] | – | 100% | 90% | 100% | – |
| Cn1cc(C(=O)NS(=O)(=O)c2c(Cl)cccc2Br)nc1-c1cccc(Cl)c1Cl [Example 466] | – | 100% | 90% | 100% | – |
| Cc1ccccc1S(=O)(=O)NC(=O)c1cn(C)c(-c2nccc3ccccc23)n1 [Example 465] | – | 100% | 100% | 100% | – |
| O=C(NS(=O)(=O)c1ccc(Cl)cc1)c1nc(-c2ccccc2Cl)n(-c2ccccc2)c1Cl [Example 105] | – | 100% | – | – | – |
| COc1cc(S(=O)(=O)NC(=O)c2cn(C)c(-c3ncccc3Cl)n2)c(C)cc1Br [Example 611] | – | 100% | 90% | 100% | – |
| Cc1ccccc1S(=O)(=O)NC(=O)c1cn(C)c(-c2ncccc2Cl)n1 [Example 540] | – | 100% | 100% | 100% | – |
| COc1ccc(Br)c(S(=O)(=O)NC(=O)c2cn(C)c(-c3c(F)cccc3F)n2)c1 [Example 143] | – | 100% | 90% | 90% | – |
| CCCc1cccc(C(F)(F)F)c1S(=O)(=O)NC(=O)c1cn(C)c(-c2c(F)cccc2F)n1 [Example 370] | – | 100% | 90% | 100% | – |
| COc1cc(S(=O)(=O)NC(=O)c2cc(C)n(-c3ncccc3Br)n2)c(C)cc1Br [Example 300] | – | 100% | 90% | 100% | – |
| Cc1ccccc1S(=O)(=O)NC(=O)c1nc(-c2c(F)cccc2F)n(C)c1C [Example 196] | – | 100% | – | 100% | – |
| Cn1cc(C(=O)NS(=O)(=O)c2c(Cl)cccc2C(F)(F)F)nc1-c1cccc(Cl)c1Cl [Example 467] | – | 100% | 100% | 100% | – |
| CCOc1ccc(Cl)c(S(=O)(=O)NC(=O)c2cn(C)c(-c3c(F)cccc3F)n2)c1 [Example 387] | – | 100% | 100% | 100% | – |
| Cc1ccc(F)cc1S(=O)(=O)NC(=O)c1cc(C)n(-c2ncccc2Br)n1 [Example 303] | – | 83% | 100% | 100% | – |
| Cn1cc(C(=O)NS(=O)(=O)c2ccccc2Cl)nc1-c1nccc2ccccc12 [Example 464] | – | 100% | 100% | 90% | – |
| CCc1ccc(Cl)cc1S(=O)(=O)NC(=O)c1cn(C)c(-c2cccc(Cl)c2Cl)n1 [Example 461] | – | 100% | 100% | 100% | – |
| COc1cc(S(=O)(=O)NC(=O)c2cn(C)c(-c3ncccc3F)n2)c(C)cc1Br [Example 610] | – | 100% | 100% | 100% | – |
| Cc1cc(F)c(F)cc1S(=O)(=O)NC(=O)c1cn(C)c(-c2ccccc2Cl)n1 [Example 290] | – | 100% | 100% | 100% | – |
| COc1ccc(C)c(S(=O)(=O)NC(=O)c2cn(C)c(-c3cccc(Cl)c3Cl)n2)c1 [Example 460] | – | 83% | 100% | – | – |
| Cc1cc(C(=O)NS(=O)(=O)c2ccccc2Cl)nn1-c1ncccc1Cl [Example 273] | 90% | – | 100% | 100% | – |
| Cc1csc(S(=O)(=O)NC(=O)c2cn(C)c(-c3c(F)cccc3F)n2)c1 [Example 350] | 90% | – | 100% | 90% | – |
| Cc1ccccc1S(=O)(=O)NC(=O)c1cc(C)n(-c2ccccc2Cl)n1 [Example 272] | 100% | – | 100% | 100% | – |
| Cc1ccccc1S(=O)(=O)NC(=O)c1cn(C)c(-c2ncccc2F)n1 [Example 500] | 90% | – | 100% | 100% | – |

| Compound | pest or weed control at 20 ppm [1] | pest or weed control at 500 g/ha [2] | pest or weed control at 500 g/ha [3] | pest or weed control at 20 ppm [4] | pest or weed control at 100 g/ha ([3]; 100 g/ha) |
| --- | --- | --- | --- | --- | --- |
| Cn1cc(C(=O)NS(=O)(=O)c2ccc(Cl)c(Cl)c2)nc1-c1ccccc1Cl [Example 165] | – | 100% | 90% | 90% | – |
| Cc1cccc(Cl)c1S(=O)(=O)NC(=O)c1cc(C)n(-c2ncccc2Br)n1 [Example 304] | – | 100% | 100% | 100% | – |
| Cn1cc(C(=O)NS(=O)(=O)c2c(Cl)cccc2Cl)nc1-c1ncccc1F [Example 594] | 90% | – | 90% | 100% | – |
| CCn1cc(C(=O)NS(=O)(=O)c2ccccc2)nc1-c1ccccc1Cl [Example 41] | 90% | – | 90% | 90% | – |
| COc1ccc(Cl)c(S(=O)(=O)NC(=O)c2nc(-c3ccccc3Cl)n(C)n2)c1 [Example 15] | 90% | – | 90% | 100% | – |
| CCc1ccccc1S(=O)(=O)NC(=O)c1cn(C)c(-c2cccc(Cl)c2Cl)n1 [Example 553] | 90% | – | 100% | 100% | – |
| Cn1cc(C(=O)NS(=O)(=O)c2c(Cl)cccc2Br)nc1-c1c(F)cccc1F [Example 430] | – | 100% | 100% | 100% | – |
| Cn1cc(C(=O)NS(=O)(=O)c2cccc(Cl)c2)nc1-c1ccccc1Cl [Example 33] | 100% | – | 90% | 100% | – |
| Cn1cc(C(=O)NS(=O)(=O)c2c(Cl)cccc2Cl)nc1-c1c(F)cccc1F [Example 93] | 90% | – | 90% | 100% | – |
| CCc1[nH]c(-c2cccc(C(C)C)c2)nc1C(=O)NS(=O)(=O)c1ccccc1Cl [Example 613] | 90% | – | – | 100% | 90% |
| CCc1ccsc1S(=O)(=O)NC(=O)c1cn(C)c(-c2ncccc2Cl)n1 [Example 605] | 90% | – | 100% | 100% | – |
| CCc1ccccc1S(=O)(=O)NC(=O)c1cc(OC)n(-c2ccccc2Cl)n1 [Example 281] | 100% | – | 90% | 100% | – |
| Cc1cc(C(=O)NS(=O)(=O)c2ccccc2Cl)nn1-c1c(F)cccc1F [Example 1] | 100% | – | 100% | 100% | – |
| O=C(NS(=O)(=O)c1c(Cl)cccc1Cl)c1cc(-c2ncccc2Cl)n(-c2ccccc2Cl)n1 [Example 266] | 90% | – | 90% | 100% | – |
| COc1ccc(C)c(S(=O)(=O)NC(=O)c2cn(C)c(-c3ncccc3F)n2)c1 [Example 593] | 90% | – | 100% | 100% | – |
| COc1cc(C(=O)NS(=O)(=O)c2c(Cl)cccc2Cl)nn1-c1ccccc1Cl [Example 270] | 100% | – | 90% | 100% | – |
| Cn1cc(C(=O)NS(=O)(=O)c2c(Cl)cccc2Br)nc1-c1ncccc1F [Example 595] | 90% | – | 90% | 100% | – |
| COc1ccc(Cl)c(S(=O)(=O)NC(=O)c2cn(C)c(-c3cccc(Cl)c3Cl)n2)c1 [Example 554] | 90% | – | 90% | 100% | – |
| Cc1ccsc1S(=O)(=O)NC(=O)c1cn(C)c(-c2cccc(Cl)c2Cl)n1 [Example 560] | 100% | – | 100% | 100% | – |
| COc1ccc(OC)c(S(=O)(=O)NC(=O)c2nc(-c3c(F)cccc3F)n(C)c2C)c1 [Example 413] | – | 83% | 90% | – | – |
| Cc1[nH]c(-c2ccc(Cl)cc2)nc1C(=O)NS(=O)(=O)C(C)C [Example 235] | 90% | – | 100% | 100% | – |
| COc1cc(C(=O)NS(=O)(=O)c2ccccc2Br)nn1-c1ccccc1Cl [Example 277] | 90% | – | 100% | 100% | – |
